Assay: Solubility of C16TR in propellants
Type: physicochemical
Conditions: HFA134a, HFA227ea, and HFA152a
Source text: C16TR is insoluble in all commercially available propellants (HFA134a, HFA227ea, and HFA152a) and requires the use of alcohol co-solvent. When formulated with DSPE-PEG2000 and PEG400 for use with an MDI as well as desirable in vivo performance, the formulation required approximately 10% of alcohol co-solvent. Such a high level of alcohol co-solvent may lead to reduced chemical stability and aerosol performance. Unexpected improvement in chemical stability was observed when a switch from ethanol (industry standard cosolvent) to isopropyl alcohol (novel excipient) was made, as in the C16TR-MDI-W formulation.

solubility in commercially available propellants: insoluble
Structure (SMILES): CCCCCCCCCCCCCCCCOC(=O)COc1cccc2c1C[C@H]1C[C@@H](O)[C@H](CC[C@@H](O)CCCCC)[C@H]1C2 [Formulation C16TR, Treprostinil palmitil]
